The values below come from US20130137111A1, “DETECTION METHOD OF NOVEL RET FUSION” (Astellas Pharma Inc., priority 2010, published 2013).

In experiment [1] the test system is FLAG-KIF5B-RETv1S/NIH3T3 cells. Kind of experiment: Anchorage-independent cell growth inhibition in spheroid plate (CellTiter-Glo). Type of experiment: cell-based. Conditions: Mus musculus, 120 h, final concentration 1.1 μM, 96-well spheroid plate, cultured 5 days, DMSO = 0%, medium only = 100%, read-out: growth inhibition rate (%). How it is done: The measurement (colony method or the like) of anchorage-independent cell growth is known to be a system for examining the anticancer action (pharmacological effect) of a compound (“Clinical Oncology” 2nd edition, Japanese Journal of Cancer & Chemotherapy). As a method that measures the growth of non-adherent cells unlike the colony method, there is a method using a spheroid plate as described above.
In addition, a plate to which only a medium was added was prepared as a […]. […] As a […], DMSO as solvent of the compound was added thereto at the same concentration (0.1%) as the compound. Thereafter, the cells were cultured for 5 days at 37° C. in the presence of 5% CO2, and the cell counting reagent (CellTiter-Gio™ Luminescent Cell Viability Assay; Promega Corporation) was added thereto, followed by stirring for 20 minutes. Thereafter, the cells were measured using a luminescence measurement instrument (Envision; PerkinElmer Inc.). The values of positive control and negative control were regarded as 100% inhibition value and 0% inhibition value respectively to calculate the growth inhibition rate (%) of the respective compounds.
(Cellular ATP, detected with luciferase, serves as a proxy for viable cell number.)

The target in experiment [2] is T1, KIF5B-RET fusion polypeptide v1S (Homo sapiens, UniProt P07949).
T1 sequence (P07949 with tags, fused parts or gaps isoform P07949-2): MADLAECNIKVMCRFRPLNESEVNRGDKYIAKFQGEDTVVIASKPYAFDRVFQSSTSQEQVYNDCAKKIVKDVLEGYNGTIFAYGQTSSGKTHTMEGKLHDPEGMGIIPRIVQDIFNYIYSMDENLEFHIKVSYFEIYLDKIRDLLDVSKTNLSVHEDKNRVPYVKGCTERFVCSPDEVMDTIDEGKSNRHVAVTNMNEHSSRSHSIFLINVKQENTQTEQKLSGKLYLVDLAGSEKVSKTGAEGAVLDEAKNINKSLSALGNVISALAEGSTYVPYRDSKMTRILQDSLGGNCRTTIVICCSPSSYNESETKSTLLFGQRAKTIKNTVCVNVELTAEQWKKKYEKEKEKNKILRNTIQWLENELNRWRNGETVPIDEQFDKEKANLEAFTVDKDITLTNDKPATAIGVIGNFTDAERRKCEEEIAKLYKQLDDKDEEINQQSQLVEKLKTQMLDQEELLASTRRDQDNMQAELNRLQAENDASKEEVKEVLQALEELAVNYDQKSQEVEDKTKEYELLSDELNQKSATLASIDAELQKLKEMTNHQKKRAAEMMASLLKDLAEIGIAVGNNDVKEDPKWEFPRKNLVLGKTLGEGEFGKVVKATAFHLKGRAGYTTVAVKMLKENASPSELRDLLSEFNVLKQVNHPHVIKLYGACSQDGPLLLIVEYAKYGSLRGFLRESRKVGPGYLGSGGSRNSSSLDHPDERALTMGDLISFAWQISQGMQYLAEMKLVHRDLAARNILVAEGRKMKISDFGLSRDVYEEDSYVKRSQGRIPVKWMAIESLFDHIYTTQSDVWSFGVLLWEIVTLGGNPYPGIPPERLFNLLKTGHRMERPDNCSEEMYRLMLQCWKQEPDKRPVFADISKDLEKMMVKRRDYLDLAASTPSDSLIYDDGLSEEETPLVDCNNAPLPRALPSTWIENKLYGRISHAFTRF
In words: cell-based. As to conditions: NIH3T3, read-out: phosphorylation inhibition rate.

SMILES strings stand for the structures.

Take `CNC(=O)c1cc(Oc2ccc(NC(=O)Nc3ccc(Cl)c(C(F)(F)F)c3)cc2)ccn1` [Sorafenib]: the inhibition at 1.1 µM in experiment [1] amounted to 96%.

For the molecule `CCN(CC)CCNC(=O)c1c(C)[nH]c(/C=C2\C(=O)Nc3ccc(F)cc32)c1C` [Sunitinib], the inhibition at 1.1 µM in experiment [1] was determined as 77%. For the same molecule, the inhibition at 1 µM in experiment [2] turned out to be 57%.

In the case of `COc1cc2c(Nc3ccc(Br)cc3F)ncnc2cc1OCC1CCN(C)CC1` [Vandetanib], the inhibition at 1.1 µM in experiment [1] is 83%.

A word on the inhibition: it is how much of the control response was suppressed.
